Earlier results as cited in patent publication US8969412B2, “Use for a composition comprising chloroprocaine HCL, a new composition comprising chloroprocaine HCL and a method for its manufacture” (Sintetica S.A., priority 2005, dated 2015).

Legend:
[1] = in vivo
[2] = intrathecal application
[3] = intrathecal anaesthesia

For `CCN(CC)CCOC(=O)c1ccc(N)cc1Cl` [Chloroprocaine, 2-(diethylaminoethyl)-4-amino-chlorobenzoate], which systemic toxicity [1] is on record?
The systemic toxicity was “very low systemic toxicity”.

With `CCN(CC)CC(=O)Nc1c(C)cccc1C` [lidocaine] as the molecule, how does the “transient neurologic syndrome (TNS)” value [2] read?
The value was “associated with symptoms of so-called transient neurologic syndrome (TNS)”.

Which inadequacy rate [3] does the source give for `CCN(CC)CCOC(=O)c1ccc(N)cc1` [procaine] here?
The inadequacy rate was 17%.
